Series [1] is classed as physicochemical. The conditions noted are these: for Molecular weight range: 20 mM NaH2PO4, 20°C, 280 nm; for OD280 lost on centrifugation / weight-average molecular weight: 20 mM NaH2PO4. On the procedure:
Sedimentation equilibrium was performed at 20°C in a Beckman Optima XL-A analytical ultracentrifuge using absorption optics at 280 nm. Twelve mm path length double sector cells were used for all samples. Samples (OD280 = 0.7 and OD280 = 0.15)) were in 20 mM NaH2PO4. Sedimentation equilibrium profiles were measured at speeds of 3000, 7000, 11000, 24000 and 36000 rpm. The data were fitted with a nonlinear least-squares exponential fit for a single ideal species using the Beckman Origin-based software (Version 3.01 A partial specific volume of 0.739 was estimated from the amino acid composition using 0.9 (the partial specific volume of a leucine residue) for the partial specific volume of cyclohexylalanine and cyclohexylglycine. It was then corrected to 20°C [47].

Series [2] has as its system HIV-1 (BaL). Nature of the series: p24^gag antigen release assay in PM1 cells. The conditions noted are these: MOI = 10^−2, 0.078–5 µM, 37°C/5% CO2, p24 ELISA, day 5 represents peak infection. Format: cell-based. As for the experimental part:
The cells were washed and resuspended in fresh growth media containing vehicle or peptides for 7 days. Supernatants were collected at days 3, 5, and 7 post-infection, and on days 3 and 5 the cells were resuspended in 1 ml of growth medium containing the appropriate concentration of vehicle or peptide. HIV-1 infection was quantified by measuring the amount of p24^gag in the cell supernatants (Perkin Elmer p24 ELISA, Waltham, MA).
(In general: In an ELISA, binding on a coated surface is turned into a signal by an enzyme label.)

Series [3] deals with human red blood cells (hRBCs). Format: cell-based. As for the experimental part:
Heparinized fresh blood (∼3 ml) was collected from an anonymous donor. A 200 µl aliquot was removed and washed 4× with 800 µl of cold PBS at RT for 3 min at ∼500×g. After each centrifugation, 780 µl of supernatant was removed. After the last wash, the supernatant was completely removed and the packed red blood cells were diluted 1∶20 in PBS to prepare a 5% v/v stock suspension of hRBCs.
All experiments were carried out in triplicate using 96-well microplate (Costar 3596) and the OD at 700 nm was monitored every 30 s. employing the SpectraMAX 250 microplate reader (Molecular Devices, Sunnyvale, CA). Controls included PBS, untreated human RBCs, and human RBCs +2.5% Triton (100% lysis). The hemolytic effect was calculated as follows: [drawing 1]

The target of series [4] is GRFN-1 (self-association). As to the kind of experiment: SPR self-association of GRFN-1. It is filed as binding. The conditions noted are these: BIAcore CM5 chip, HBS-EP pH = 7.4, KD±SEM, average from at least 5 independent experiments. A general note: SPR reads the build-up and loss of mass on a sensor chip optically.
Protocol: Surface plasmon resonance (SPR) studies were performed on a BIAcore 3000 system (BiaCore AB, Piscataway, NJ), using BIAcore CM5 sensor chips and HBS-EP running buffer (pH = 7.4) containing 10 mM HEPES, 150 mM NaCl, 3 mM EDTA, and 0.005% polysorbate 20. Proteins/peptides were immobilized on a CM5 sensor chip using the amine coupling method. The chip was activated by mixing 400 mM N-ethyl-N-(3-dimethylaminopropyl)-carbodiimide hydrochloride and 100 mM N-hydroxysuccinimide. Residual reactive groups on the chip surface were blocked using 1.0 M ethanolamine/HCl (pH = 8.5). The flow cell-1 chamber, which served as a control, lacked immobilized protein but was treated with N-ethyl-N-(3-dimethylaminopropyl)-carbodiimide hydrochloride, N-hydroxysuccinimide, and ethanolamine/HCl. Binding signals were corrected for nonspecific binding by subtracting the flow cell-1 signal. To regenerate chip surfaces, bound ligands were removed with 10 mM HCl. Data were analyzed with BIAevaluation 4.1 software (Biacore, Piscataway, NJ).

Where two headings read alike, the source gives them in different places.

By EC50 is commonly meant the midpoint of the concentration-response curve. Low readings indicate an effect from little substance, high ones a need for much substance.

With “Cha-SC-Chg-R-Chg-RSGSY-Cha-DN-Chg-R-Chg-(D)Cys-CONH2 (disulfide) [GRFN-1]”, the Molecular weight range entry is listed as “∼150000 Da” in series [1] (3K rpm (limited data)); 68500–84700 Da in series [1] (7K rpm); 8950–38100 Da in series [1] (11K rpm); 2541–6200 Da in series [1] (24K rpm); 2245–2940 Da in series [1] (36K rpm). In addition, the “OD280 lost on centrifugation” value in series [1] (3000 rpm) is listed as “less than 5%”; in series [1] (7000 rpm), “Approximately two-thirds”. Moreover, the weight-average molecular weight entry in series [1] (7000 rpm, remaining heterogeneous material) was “about 69000”; in series [1] (early scans, after 16 hours, 3000 rpm) it was “about 150,000”. Also, the turbidity result in series [1] (initially dissolved in 20 mM NaH2PO4) was “slightly turbid solution”. In series [1] (sedimentation equilibrium, diluted salt), the “aggregation state (in words)” value is “high molecular weight soluble aggregates with some monomer present”. The substance further showed an EC50 in series [2] of 547 ± 66.1 nM. Besides, the figures for the Hemolysis in series [3] (2.5 µM), in series [3] (5 µM) and in series [3] (10 µM) were 1.2±0.7%, 2.8±2.3% and 7.3±1.3%, respectively. For the same substance, the “KD (self-association)” value in series [4] was 500 ± 130 nM.

The record behind these values is PMC3002932 (PLoS ONE, 2010).
